# Results from patent publication US20070254887A1, “Pharmaceutical Composition for Transdermal Administration of Perospirone” (priority 2004, published 2007).
# Where a name gives a salt, the structure may show the parent alone.
# Tests used:
# [1] = system: apomorphine-induced stereotypy; test: Antidopaminergic activities in rat apomorphine-induced stereotypy model; type: in vivo, SD rats; conditions: for Efficacy (positive numbers/total numbers): placebo tape 1 cm × 1 cm
# Procedure: […]. The test was carried out according to the description of Jpn. J. Pharmacol. 53, 321-329 (1990).
# Specifically, 7-week-old SD rats were dehaired the back on the day before the test, patched the tapes on the back, and further water was administered orally in an amount 5 ml/Kg. After the patching, an apomorphine hydrochloride was administered via tail veins in a dose of 1.25 mg/Kg at predetermined times as assessment times, and stereotypy was observed.
# 7-Week-old SD rats were dehaired the back on the day before the test, patched the placebo tape (Reference Formulation 1) containing no perospirone prepared in Reference Example 1 on the back, and administered orally perospirone hydrochloride hydrate in a dose of 10 mg/Kg or 2 mg/Kg. Thereafter, an apomorphine hydrochloride was administered via tail veins in a dose of 1.25 mg/Kg at predetermined times as assessment times. An inhibitory effect of an apomorphine-induced behavior was determined in the same manner as Experiment 2.
# [2] = Blood kinetics assessment: serum concentrations of perospirone and ID-15036 after transdermal or oral administration; type: in vivo, SD male rats; conditions: rat, oral administration, first measurement point (FIG. 5)
# Procedure: 7-Week-old SD male rats were anesthetized and dehaired the abdomen. The rats were administered with transdermal formulations Formulations 1 to 8 in the sites of the dehaired abdomen and constantly collected blood, and serums were separated. The serums were partitioned and extracted with n-hexane-chloroform (7:3) and about 0.0005M aqueous sodium hydroxide solution, and the organic layers were evaporated and dried to solids. The resulting solids were dissolved, and serum concentrations of perospirone and its main metabolite ID-15036 were determined by quantification via reverse phase high performance liquid chromatography. […]
# 7-Week-old SD male rats were administered orally with 10 mg/kg of a solution of perospirone hydrochloride hydrate in a distilled water for injection in a concentration of 2 mg/ml, and the blood was collected with lapse of time. Serum concentrations of perospirone and the main metabolite ID-15036 were determined in the same manner as Experiment 3. […]
# [3] = system: tryptamine-induced clonic seizures of forepaws; test: Antiserotonin activities in rat tryptamine-induced clonic seizures of forepaws model; type: in vivo, SD rats; conditions: for Efficacy (positive numbers/total numbers): placebo tape 1 cm × 1 cm
# Procedure: Antiserotonin activities of the perospirone tape prepared in Example 14 (Formulation 10) and the perospirone tape prepared in Example 15 (Formulation 11) were assessed in a rat tryptamine-induced clonic seizures of forepaws model. The test was carried out according to the description of Jpn. J. Pharmacol. 53, 321-329 (1990).
# Specifically, 7-week-old SD rats were dehaired the back on the day before the test, the tapes were patched on the back, and further water was administered orally in an amount of 5 ml/Kg. After the patching of tapes, a tryptamine hydrochloride was administered via tail veins in a dose of 40 mg/Kg at predetermined times as assessment times, and appearance of a clonic seizures of forepaws was observed.
# 7-Week-old SD rats were dehaired the back on the day before the test, patched with the placebo tape (Reference Formulation 1) containing no perospirone prepared in Reference Example 1 on the back, and administered orally perospirone hydrochloride hydrate in a dose of 3 mg/Kg or 0.5 mg/Kg. After administrations, a tryptamine hydrochloride was administered via tail veins in a dose of 40 mg/Kg at predetermined times as assessment times. An inhibitory effect of a tryptamine-induced behavior was determined in the same manner as Experiment 1.
# [4] = system: antiserotonin activity; conditions: rat; cited from earlier work
structure (smiles),measurement,setting,value
O=C1[C@H]2CCCC[C@H]2C(=O)N1CCCCN1CCN(c2nsc3ccccc23)CC1 [perospirone hydrochloride hydrate],Efficacy (positive numbers/total numbers),"[1]; oral 2 mg/Kg, 1 hour after administration",2/5
same,Efficacy (positive numbers/total numbers),"[1]; oral 10 mg/Kg, 1 hour after administration",5/5
same,Efficacy (positive numbers/total numbers),"[1]; oral 10 mg/Kg, 10 hours after administration",4/5
same,Efficacy (positive numbers/total numbers),"[1]; oral 10 mg/Kg, 48 hours after administration",0/5
same,time of maximum serum concentrations after administration,[2],30 min
same,Efficacy (positive numbers/total numbers),"[3]; oral 0.5 mg/Kg, 1 hour after administration",0/5
same,Efficacy (positive numbers/total numbers),"[3]; oral 3 mg/Kg, 1 hour after administration",3/5
same,Efficacy (positive numbers/total numbers),"[3]; oral 3 mg/Kg, 10 hours after administration",0/7
"O=C1[C@H]2CCCC[C@H]2C(=O)N1CCCCN1CCN(c2nsc3ccccc23)CC1 [perospirone, cis-N-[4-[4-(1,2-benzisothiazol-3-yl)-1-piperazinyl]butyl]cyclohexane-1,2-dicarboximide]",antidopaminergic activities,[1]; oral administration,showed antidopaminergic activities 1 and 10 hours after administration but not 48 hours after administration
same,antiserotonin activities,"[3]; oral administration, group of 3 mg/Kg",antiserotonin activities could not be recognized 10 hours after administration
O=C1C2CCCCC2(O)C(=O)N1CCCCN1CCN(c2nsc3ccccc23)CC1 (centres unmarked) [ID-15036],antiserotonin activity compared to perospirone,[4],about ⅛
